Reference: patent US7262052B1, “α-2/δ gene” (Warner Lambert Company, priority 1999, dated 2007)
Where “and” joins values, the source holds several entries; their conditions need not be identical. Identical values can stand only once.

Key:
[1] = tested on: voltage-gated Ca2+ channels (α1B, β1C subunits); assay: Ca2+ channel currents in Xenopus oocytes injected with cRNA, two-electrode voltage clamp; type: cell-based; conditions: for increase in current compared to no α2δ subunits: co-injected with α1B and β1C in Xenopus oocytes
Procedure: Since α2δ-C has sequence homology to α2δ-A, and α2δ-A functions as a subunit of VSCCs, experiments were undertaken to determine if α2δ-C can replace α2δ-A and produce functional VSCCs. Xenopus oocytes were isolated using standard techniques and injected with cRNA for α1B, β1C and α2δ-C subunits of voltage-gated Ca^2+ channels. Four days to 1 week following injection of cRNA, Ca^2+ channel currents were measured using two-electrode voltage clamp with 5 mM Ba^2+ as the charge carrier. Test pulses to +10 mV from a holding membrane potential of −80 mV were applied to evoke Ca^2+ channel currents. Peak inward currents evoked during the test pulse were measured. The amplitude of inward currents is proportional to the expression level of voltage-gated Ca^2+ channels.

[2] = biological target: T1, Human α2δ-B (Homo sapiens, UniProt Q9NY47); assay: [3H]gabapentin saturation binding, membranes of transiently transfected COS-7 cells
T1 construct: transiently transfected with the full-length porcine α2δ-A, and human α2δ-B genes; expressed in transfected cells; host or cells: COS-7 cells, pcDNA3.1 vector, lipofectamine; membranes
T1 sequence (Q9NY47 19-1145 isoform Q9NY47-3 limits assumed): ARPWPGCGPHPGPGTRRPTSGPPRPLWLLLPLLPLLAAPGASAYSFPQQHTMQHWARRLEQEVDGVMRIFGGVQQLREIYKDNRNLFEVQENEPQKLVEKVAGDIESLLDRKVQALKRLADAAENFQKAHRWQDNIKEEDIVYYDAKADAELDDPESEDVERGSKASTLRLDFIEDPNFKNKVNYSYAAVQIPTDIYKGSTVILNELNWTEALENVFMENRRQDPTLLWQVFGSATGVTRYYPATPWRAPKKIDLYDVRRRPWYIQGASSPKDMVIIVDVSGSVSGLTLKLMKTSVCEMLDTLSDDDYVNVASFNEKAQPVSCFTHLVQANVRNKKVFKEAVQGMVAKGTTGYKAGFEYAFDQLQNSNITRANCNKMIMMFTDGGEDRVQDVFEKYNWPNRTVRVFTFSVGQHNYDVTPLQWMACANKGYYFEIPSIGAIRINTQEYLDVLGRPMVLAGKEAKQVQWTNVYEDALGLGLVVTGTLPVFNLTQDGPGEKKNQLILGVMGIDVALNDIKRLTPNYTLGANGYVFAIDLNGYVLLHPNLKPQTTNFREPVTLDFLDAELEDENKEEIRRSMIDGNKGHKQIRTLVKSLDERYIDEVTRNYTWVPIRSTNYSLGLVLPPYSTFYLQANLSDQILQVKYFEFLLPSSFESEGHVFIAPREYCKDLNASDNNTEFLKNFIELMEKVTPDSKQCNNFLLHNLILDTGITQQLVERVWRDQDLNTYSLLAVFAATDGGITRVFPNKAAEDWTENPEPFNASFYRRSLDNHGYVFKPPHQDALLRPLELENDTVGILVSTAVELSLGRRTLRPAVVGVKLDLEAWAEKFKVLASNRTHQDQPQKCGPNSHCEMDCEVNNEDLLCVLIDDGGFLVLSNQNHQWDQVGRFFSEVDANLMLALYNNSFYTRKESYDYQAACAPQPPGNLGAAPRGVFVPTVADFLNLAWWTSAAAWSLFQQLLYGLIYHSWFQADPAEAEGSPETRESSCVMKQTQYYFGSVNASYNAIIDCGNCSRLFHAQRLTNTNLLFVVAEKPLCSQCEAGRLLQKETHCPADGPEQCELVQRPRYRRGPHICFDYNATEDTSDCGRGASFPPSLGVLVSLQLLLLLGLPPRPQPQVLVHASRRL
Excerpt: […]. […] […].
The filters were then counted in a scintillation counter.

| Molecule | increase in current compared to no α2δ subunits [1] [fold] | Kd ([2]; KD, single determinations (n = 2), 21° C., COS-7 membranes) | Kd ([2]; Mean KD, mean of n = 2) [nM] | binding of [3H]gabapentin (in words) ([2]; full-length gene product expressed transiently in COS-7) | peak inward current amplitude ([1]; co-injected with α1B and β1C, 5 mM Ba2+, test pulse to +10 mV from −80 mV, n=20, p<0.01 vs no α2δ) [nA] |
| --- | --- | --- | --- | --- | --- |
| α2δA: known α2δ-A subunit of the voltage-sensitive calcium channel, comparator | 20 | – | – | – | – |
| NCC1(CC(=O)O)CCCCC1 [[3H]gabapentin, gabapentin] | – | 32.6 nM and 87.2 nM | 59.9 | high affinity | – |
| α2δC: novel human α2δ-C calcium channel subunit (SEQ ID NO 5), expressed from injected cRNA (protein, listed as Homo sapiens) MAGPGSPRRASRGASALLAAALLYAALGDVVRSEQQIPLSVVKLWASAFGGEIKSIAAKYSGSQLLQKKYKEYEKDVAIEEIDGLQLVKKLAKNMEEMFHKKSEAVRRLVEAAEEAHLKHEFDADLQYEYFNAVLINERDKDGNFLELGKEFILAPNDHFNNLPVNISLSDVQVPTNMYNKDPAIVNGVYWSESLNKVFVDNFDRDPSLIWQYFGSAKGFFRQYPGIKWEPDENGVIAFDCRNRKWYIQAATSPKDVVILVDVSGSMKGLRLTIAKQTVSSILDTLGDDDFFNIIAYNEELHYVEPCLNGTLVQADRTNKEHFREHLDKLFAKGIGMLDIALNEAFNILSDFNHTGQGSICSQAIMLITDGAVDTYDTIFAKYNWPDRKVRIFTYLIGREAAFADNLKWMACANKGFFTQISTLADVQENVMEYLHVLSRPKVIDQEHDVVWTEAYIDSTLTDDQGPVLMTTVAMPVFSKQNETRSKGILLGVVGTDVPVKELLKTIPKYKLGIHGYAFAITNNGYILTHPELRLLYEEGKKRRKPNYSSVDLSEVEWEDRDDVLRNAMVNRKTGKFSMEVKKTVDKGKRVLVMTNDYYYTDIKGTPFSLGVALSRGHGKYFFRGNVTIEEGLHDLEHPDVSLADEWSYCNTDLHPEHRHLSQLEAIKLYLKGKEPLLQCDKELIQEVLFDAVVSAPIEAYWTSLALNKSENSDKGVEVAFLGTRTGLSRINLFVGAEQLTNQDFLKAGDKENIFNADHFPLWYRRAAEQIPGSFVYSIPFSTGPVNKSNVVTASTSIQLLDERKSPVVAAVGIQMKLEFFQRKFWTASRQCASLDGKCSISCDDETVNCYLIDNNGFILVSEDYTQTGDFFGEIEGAVMNKLLTMGSFKRITLYDYQAMCRANKESSDGAHGLLDPYNAFLSAVKWIMTELVLFLVEFNLCSWWHSDMTAKAQKLKQTLEPCDTEYPAFVSERTIKETTGNIACEDCSKSFVIQQIPSSNLFMVVVDSSCLCESVAPITMAPIEIRYNESLKCERLKAQKIRRRPESCHGFHPEENARECGGAPSLQAQTVLLLLPLLLMLFSR | 2 | – | – | – | 213±12 |
